Results published in paper PMC6937325, “Tuning PFKFB3 Bisphosphatase Activity Through Allosteric Interference” (Scientific Reports, 2019).
Entries after “also recorded” stand apart in the source; their conditions may differ.

Key:
[1] = biological target: T1, RED-NHS labeled recombinant PFKFB3 (Homo sapiens, UniProt Q16875); assay: Microscale thermophoresis (MST) binding assay; conditions: for Binding Affinity: 100 nM RED-NHS labeled PFKFB3, 20 min at room temperature, Table 3; for KD: Table S3, list of synthesized peptides from VS
T1 construct: His tag (N, cleaved yes); made in house; host or cells: Escherichia coli BL21 (DE3) Plys
Description: The PFKFB3 plasmid was provided by Prof. Yong-Hwan Lee from Louisiana State University. The His-tagged human inducible bifunctional enzyme (GenBank code: AF056320.1) was expressed in Escherichia coli BL21 (DE3) Plys as reported previously. The PFKFB3 protein was purified using nickel affinity columns and the N-terminal His tag was removed using a standard protocol. After the treatment with thrombin the protein was eluted with an anion-exchange column. The pure protein was concentrated to 2–10 mg/mL and stored in 20 mM Tris HCl pH 8.0, 10 mM NaPi, 5 mM β-mercaptoethanol and 5% glycerol.
The dissociation constant was determined using Nanotemper microscale thermophoresis (MST)[38]. In a typical experiment, a compound was dissolved in MST buffer and mixed with 100 nM RED-NHS labeled recombinant PFKFB3 in 1:1 ratio. The mixture was incubated at room temperature for 20 min. and a full MST measurement was performed. Data were analyzed with Nanotemper software (https://nanotempertech.com/monolith/).

PFKFB3 bisphosphatase = biological target: T2, PFKFB3 bisphosphatase (Homo sapiens, UniProt Q16875); assay: PFKFB3 bisphosphatase activity by LC-MS/MS quantitation of F6P; format: biochemical; conditions: for Effect on bisphosphatase activity / substrate conversion rate vs enzyme alone: Dunnett's multiple comparisons test (two-way ANOVA); for h, Hill coefficient (PFKFB3 in presence of compound) / Vmax (Hill equation, PFKFB3 in presence of compound): Hill fit of bisphosphatase kinetics; for h, Hill coefficient (PFKFB3 in presence of compound): enzyme alone 2.03; for Vmax (Hill equation, PFKFB3 in presence of compound): maximum velocity at enzyme saturation, enzyme alone 0.16; for Enzyme velocity: enzyme 100 nM, compound at 50 µM or equal to its KD, 18 h at 37 °C, Tris buffer pH 8, LC-MS/MS of F6P; for Khalf (Hill equation, PFKFB3 in presence of compound): substrate concentration giving half of maximum velocity, enzyme alone 21.51, in µM (unit assumed)
T2 construct: His tag (N, cleaved yes); made in house; host or cells: Escherichia coli BL21 (DE3) Plys
Description: HPLC grade water (18 MΩ) was prepared with a Milli-Q purification system (Millipore, Milan, IT). Ammonium formate, fructose-6-phosphate (F6P), Tris HCl, glycerol, 2-mercaptoethanol, sodium phosphate and Amicon-ultra centrifugal filters (30 kDa) were purchased from Sigma Aldrich. F2,6BP was kindly provided by Prof. Lisardo Boscá from Spanish National Research Council in Madrid, Spain. Compound AZ 33 was provided by Carlo DeDominicis, University of Aberdeen. Phosphatase activity of PFKFB3 was measured by quantitation of the reaction product (i.e. F6P) by means of liquid chromatography tandem mass spectrometry. Enzyme reaction rate was determined after 18 h of incubation at 37 °C in sterile (0.22 µm filtered) Tris buffer (20 mM Tris-HCl pH 8; 10 mM sodium phosphate; 5 mM 2-mercaptoethanol and 5% of glycerol) at a final enzyme concentration of 100 nM. Both the enzyme and the substrate (i.e. fructose-2,6-bisphosphate, F2,6BP) were pre-warmed at 37 °C for five min before starting the kinetics by spiking the substrate into the enzyme solution. To plot the enzyme kinetics, the reaction rate was measured in independent experiments at different concentration of substrate (i.e. 5, 10, 15, 20, 25, 30, 40 and 50 µM). Diafiltration on amicon-ultra filters (30 kDa MWCO) was used to stop the reactions. Both the residual substrate and the product were collected in the filtrate, while the enzyme was retained by the filter. The same protocol was used to measure the effect of ligands on enzyme phosphatase activity. For such a purpose the reaction rate was measured at the same substrate concentrations, but the enzyme was incubated with the compound and pre-warmed before starting the kinetics. Compounds were incubated with the enzyme at a concentration 50 µM or equal to their KD, if available. Independent analyses were done without the enzyme (i.e. controls) to assess any degradation of the substrate in the same experimental condition used for the enzyme kinetics. The concentration of the […] produced by the kinetics was determined by interpolation with a calibration curve obtained by the analysis of fructose-6-phosphate standards prepared in a concentration range between 0.5 µM and 50 µM. The velocity was calculated as nanomoles of F6P produced in one min by a nanomole of PFKFB3, subtracting the nanomoles of F6P produced by self-degradation of the substrate from the nanomoles of F6P produced by the enzyme kinetic.
Quantitation of F6P produced was provided by a Surveyor HPLC system connected to a TSQ Quantum Ultra triple quadrupole mass spectrometer by a Finnigan IonMax electrospray ionization (ESI) source assembled with a high flow stainless steel emitter (Thermo Scientific, Rodano, MI, Italy). Filtrate containing the kinetics products were diluted 1:4 in water and placed into the autosampler rack, which was cooled at 8 °C to prevent sample degradation during analyses. […] Table 1 reports the mobile phases and gradient program used for the elution.
The flow from the column was directly sprayed into the mass spectrometer with no further splitting. Nebulization and ionization were achieved by 70 units of sheath gas, 25 units of auxiliary gas, a capillary temperature of 270 °C and a spray voltage of −4.5 kV. The analyzer was set to scan the negative ions reported in Table 2 in Multiple Reaction Monitoring mode (MRM), with a scan time of 0.05 seconds and a resolution of 0.5 m/z for both the first and the third quadrupoles. The MRM transitions reported in Table 2 were previously optimized in a semi-automatic mode to achieve the best instrumental response and selectivity for fructose-6-phosphate, by flow injection of a standard solution.
In order to determine the effect of the PFKFB3-binding compounds on the bisphosphatase activity, a LC-MS/MS analytical method was developed. Firstly, separate kinetics were measured for the enzyme alone or equilibrated with compounds 4–8. […]

[2] = substrate F2,6BP 20 µM, asterisks = significance vs enzyme alone (two-way ANOVA, Dunnett)
[3] = substrate F2,6BP 25 µM, asterisks = significance vs enzyme alone
[4] = substrate F2,6BP 30 µM, asterisks = significance vs enzyme alone
[5] = substrate F2,6BP 40 µM, asterisks = significance vs enzyme alone
[6] = substrate F2,6BP 50 µM, asterisks = significance vs enzyme alone

T2 sequence (Q16875 whole entry): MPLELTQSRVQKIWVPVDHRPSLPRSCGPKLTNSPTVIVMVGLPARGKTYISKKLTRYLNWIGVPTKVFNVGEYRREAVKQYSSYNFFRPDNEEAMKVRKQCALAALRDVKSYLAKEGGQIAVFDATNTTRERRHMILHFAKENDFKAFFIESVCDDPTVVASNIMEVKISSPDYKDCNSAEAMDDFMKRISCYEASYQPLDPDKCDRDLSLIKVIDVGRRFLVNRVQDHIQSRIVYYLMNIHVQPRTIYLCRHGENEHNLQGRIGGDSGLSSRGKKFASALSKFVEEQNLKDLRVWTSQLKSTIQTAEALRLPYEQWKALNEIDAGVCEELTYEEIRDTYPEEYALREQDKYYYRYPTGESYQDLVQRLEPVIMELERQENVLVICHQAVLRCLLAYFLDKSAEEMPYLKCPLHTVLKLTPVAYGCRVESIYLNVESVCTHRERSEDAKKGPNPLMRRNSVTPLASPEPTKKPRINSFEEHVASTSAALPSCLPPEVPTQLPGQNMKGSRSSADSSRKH
T1 sequence (Q16875 whole entry): as above

Molecule | Binding Affinity [1] | KD [1] | Effect on bisphosphatase activity / substrate conversion rate vs enzyme alone (PFKFB3 bisphosphatase) | h, Hill coefficient (PFKFB3 in presence of compound) (PFKFB3 bisphosphatase) | Vmax (Hill equation, PFKFB3 in presence of compound) (PFKFB3 bisphosphatase) | Enzyme velocity (PFKFB3 bisphosphatase; [2]) | Enzyme velocity (PFKFB3 bisphosphatase; [3]) | Enzyme velocity (PFKFB3 bisphosphatase; [4]) | Enzyme velocity (PFKFB3 bisphosphatase; [5]) | Enzyme velocity (PFKFB3 bisphosphatase; [6]) | Khalf (Hill equation, PFKFB3 in presence of compound) (PFKFB3 bisphosphatase)
SFLLRN-CONH2 [Compound 7] | not able to bind the enzyme; also recorded: No evidence of binding | No binding | no significant variations | 1.95 | 0.19 | 0.07 ± 0.01 nmol/min of F6P per nmol of enzyme | 0.07 ± 0.04 nmol/min of F6P per nmol of enzyme | 0.11 ± 0.04 nmol/min of F6P per nmol of enzyme | 0.14 ± 0.01 nmol/min of F6P per nmol of enzyme | 0.14 ± 0.01 nmol/min of F6P per nmol of enzyme | 28.12
CC(C)C[C@H](NC(=O)[C@H](Cc1ccccc1)NC(=O)CNC(=O)[C@H](CO)NC(=O)[C@@H](N)Cc1ccc(O)cc1)C(=O)N[C@H](C(=O)O)[C@@H](C)O [Compound 4] | – | – | no significant variations | 2.39 | 0.18 | 0.05 ± 0.03 nmol/min of F6P per nmol of enzyme | 0.07 ± 0.04 nmol/min of F6P per nmol of enzyme | 0.12 ± 0.03 nmol/min of F6P per nmol of enzyme | 0.13 ± 0.04 nmol/min of F6P per nmol of enzyme | 0.14 ± 0.01 nmol/min of F6P per nmol of enzyme | 26.54
Trp-Gly-Tyr [Compound 8] | not able to bind the enzyme; also recorded: No evidence of binding | No binding | no significant variations | 2.24 | 0.21 | 0.06 ± 0.03 nmol/min of F6P per nmol of enzyme | 0.05 ± 0.00 nmol/min of F6P per nmol of enzyme | 0.10 ± 0.01 nmol/min of F6P per nmol of enzyme | 0.14 ± 0.05 nmol/min of F6P per nmol of enzyme | 0.14 ± 0.04 nmol/min of F6P per nmol of enzyme | 32.83
